Test results from the CheMixHub viscosity set.

Assay: xn = mol fraction of the nth substance listed

CCOC(=O)CCl + CCCCCCCC
viscosity [mPa·s], 101.33 kPa
Details | x1 = 0.1027 | x1 = 0.2003 | x1 = 0.3048 | x1 = 0.4033 | x1 = 0.5064 | x1 = 0.6021 | x1 = 0.7042 | x1 = 0.8031 | x1 = 0.9017
298.15 K | 0.524 | 0.553 | 0.586 | 0.618 | 0.666 | 0.718 | 0.782 | 0.855 | 0.953
303.15 K | 0.493 | 0.518 | 0.551 | 0.577 | 0.621 | 0.669 | 0.723 | 0.796 | 0.884
308.15 K | 0.465 | 0.487 | 0.519 | 0.541 | 0.584 | 0.624 | 0.676 | 0.741 | 0.82

COC(=O)c1ccccc1 + CCCCCCCC
101 kPa
Details | viscosity [mPa·s]
298.15 K, x2 = 0.0356 | 1.698
298.15 K, x2 = 0.0736 | 1.572
298.15 K, x2 = 0.1081 | 1.474
298.15 K, x2 = 0.1549 | 1.349
298.15 K, x2 = 0.1926 | 1.265
298.15 K, x2 = 0.2388 | 1.169
298.15 K, x2 = 0.3669 | 0.961
298.15 K, x2 = 0.4093 | 0.905
298.15 K, x2 = 0.4513 | 0.855
298.15 K, x2 = 0.5041 | 0.796
298.15 K, x2 = 0.55 | 0.754
298.15 K, x2 = 0.6034 | 0.707
298.15 K, x2 = 0.6567 | 0.669
298.15 K, x2 = 0.7105 | 0.634
298.15 K, x2 = 0.7575 | 0.606
298.15 K, x2 = 0.8645 | 0.558
298.15 K, x2 = 0.9387 | 0.533
308.15 K, x2 = 0.0548 | 1.358
308.15 K, x2 = 0.0935 | 1.263
308.15 K, x2 = 0.1329 | 1.177
308.15 K, x2 = 0.1743 | 1.099
308.15 K, x2 = 0.216 | 1.026
308.15 K, x2 = 0.2531 | 0.967
308.15 K, x2 = 0.2946 | 0.909
308.15 K, x2 = 0.341 | 0.852
308.15 K, x2 = 0.3823 | 0.806
308.15 K, x2 = 0.4247 | 0.763
308.15 K, x2 = 0.4738 | 0.719
308.15 K, x2 = 0.5182 | 0.685
308.15 K, x2 = 0.5728 | 0.645
308.15 K, x2 = 0.6245 | 0.612
308.15 K, x2 = 0.6742 | 0.583
308.15 K, x2 = 0.7274 | 0.558
308.15 K, x2 = 0.774 | 0.536
308.15 K, x2 = 0.8351 | 0.512
308.15 K, x2 = 0.9135 | 0.486
318.15 K, x2 = 0.0668 | 1.147
318.15 K, x2 = 0.0719 | 1.139
318.15 K, x2 = 0.112 | 1.068
318.15 K, x2 = 0.1404 | 1.022
318.15 K, x2 = 0.1952 | 0.94
318.15 K, x2 = 0.2418 | 0.876
318.15 K, x2 = 0.2828 | 0.823
318.15 K, x2 = 0.3337 | 0.764
318.15 K, x2 = 0.3678 | 0.729
318.15 K, x2 = 0.4175 | 0.682
318.15 K, x2 = 0.463 | 0.644
318.15 K, x2 = 0.5158 | 0.605
318.15 K, x2 = 0.5624 | 0.576
318.15 K, x2 = 0.6149 | 0.548
318.15 K, x2 = 0.6664 | 0.525
318.15 K, x2 = 0.7241 | 0.502
318.15 K, x2 = 0.7767 | 0.485
318.15 K, x2 = 0.8373 | 0.468
318.15 K, x2 = 0.8921 | 0.453

CCOC(=O)CCl + CCCCCCCCC
viscosity [mPa·s], 101.33 kPa
Details | x1 = 0.1004 | x1 = 0.2033 | x1 = 0.3013 | x1 = 0.4018 | x1 = 0.5019 | x1 = 0.6012 | x1 = 0.7037 | x1 = 0.8037 | x1 = 0.9012
298.15 K | 0.66 | 0.665 | 0.686 | 0.716 | 0.755 | 0.799 | 0.849 | 0.907 | 0.982
303.15 K | 0.62 | 0.623 | 0.644 | 0.67 | 0.705 | 0.743 | 0.792 | 0.842 | 0.912
308.15 K | 0.58 | 0.583 | 0.602 | 0.624 | 0.654 | 0.688 | 0.735 | 0.778 | 0.843

c1ccc2c(c1)CCCC2 + CCCCCCCCC
viscosity [mPa·s], 101 kPa
Details | x2 = 0.1063 | x2 = 0.2018 | x2 = 0.3066 | x2 = 0.4057 | x2 = 0.5014 | x2 = 0.6005 | x2 = 0.704 | x2 = 0.7942 | x2 = 0.8898
293.15 K | 1.814 | 1.585 | 1.352 | 1.198 | 1.082 | 0.976 | 0.89 | 0.826 | 0.784
298.15 K | 1.653 | 1.45 | 1.254 | 1.111 | 1.006 | 0.908 | 0.833 | 0.775 | 0.735
303.15 K | 1.518 | 1.334 | 1.151 | 1.034 | 0.937 | 0.848 | 0.777 | 0.728 | 0.69
313.15 K | 1.308 | 1.148 | 0.997 | 0.905 | 0.821 | 0.749 | 0.69 | 0.649 | 0.615

CCOC(=O)CCl + CCCCCCCCCC
viscosity [mPa·s], 101.33 kPa
Details | x1 = 0.0992 | x1 = 0.2037 | x1 = 0.3031 | x1 = 0.4005 | x1 = 0.5016 | x1 = 0.6027 | x1 = 0.7039 | x1 = 0.8019 | x1 = 0.9008
298.15 K | 0.821 | 0.825 | 0.828 | 0.843 | 0.869 | 0.897 | 0.93 | 0.969 | 1.024
303.15 K | 0.761 | 0.766 | 0.767 | 0.78 | 0.801 | 0.827 | 0.854 | 0.885 | 0.946
308.15 K | 0.707 | 0.713 | 0.719 | 0.725 | 0.742 | 0.765 | 0.791 | 0.829 | 0.872
